pIC50: −log10 of the molar value.
These compounds were tested against RIPK3 (Homo sapiens (Human), UniProt Q9Y572) (assay: RIPK3 HTRF Kinase Assay). Settings: RIPK3 1 nM; HTRF probe 23 nM; 60 min at room temperature; read-out: IC50 for Inhibition of RIPK3.
Assay type: binding

RIPK3, sequence (Q9Y572 whole entry, species assumed): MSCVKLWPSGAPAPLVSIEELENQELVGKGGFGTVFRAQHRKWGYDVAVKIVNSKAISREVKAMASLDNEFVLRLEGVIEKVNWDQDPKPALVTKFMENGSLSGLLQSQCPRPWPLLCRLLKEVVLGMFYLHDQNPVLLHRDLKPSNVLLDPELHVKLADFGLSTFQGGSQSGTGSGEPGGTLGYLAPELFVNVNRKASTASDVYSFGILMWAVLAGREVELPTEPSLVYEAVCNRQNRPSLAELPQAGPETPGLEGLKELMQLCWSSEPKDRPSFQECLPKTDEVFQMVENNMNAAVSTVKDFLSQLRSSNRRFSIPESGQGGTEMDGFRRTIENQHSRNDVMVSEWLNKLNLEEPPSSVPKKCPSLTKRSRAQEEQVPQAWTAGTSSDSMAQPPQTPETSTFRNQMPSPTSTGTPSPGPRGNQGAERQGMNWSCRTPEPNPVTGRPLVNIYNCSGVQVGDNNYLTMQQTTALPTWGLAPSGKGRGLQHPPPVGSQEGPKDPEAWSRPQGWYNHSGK

Structure (SMILES)	pIC50
Cc1n[nH]cc1-c1c(-c2ccc(F)cc2)c2c(n1Cc1ccc(F)cc1C#N)CCNC2=O [Example 1, 5-Fluoro-2-((3-(4-fluorophenyl)-2-(3-methyl-1H-pyrazol-4-yl)-4-oxo-4,5,6,7-tetrahydro-1H-pyrrolo[3,2-c]pyridin-1-yl)methyl)benzonitrile]	4.82 to 7.00
N#Cc1cccc(Cn2c3c(c(-c4ccc(F)cc4)c2-c2ccncc2)C(=O)NCC3)c1 [Example 2, 3-((3-(4-Fluorophenyl)-4-oxo-2-(pyridin-4-yl)-4,5,6,7-tetrahydro-1H-pyrrolo[3,2-c]pyridin-1-yl)methyl)benzonitrile]	> 7.52
CC(=O)Nc1cc(-c2c(-c3ccc(F)cc3)c3c(n2CC2CCOCC2)CCNC3=O)ccn1 [Example 3, N-(4-(3-(4-Fluorophenyl)-4-oxo-1-((tetrahydro-2H-pyran-4-yl)methyl)-4,5,6,7-tetrahydro-1H-pyrrolo[3,2-c]pyridin-2-yl)pyridin-2-yl)acetamide]	4.82 to 7.00
CC(=O)Nc1cc(-c2c(-c3ccc(F)cc3)c3c(n2Cc2ccc(C)cc2)CCNC3=O)ccn1 [Example 4, N-(4-(3-(4-Fluorophenyl)-1-(4-methylbenzyl)-4-oxo-4,5,6,7-tetrahydro-1H-pyrrolo[3,2-c]pyridin-2-yl)pyridin-2-yl)acetamide]	> 7.52
O=C1NCCc2c1c(-c1cccc(-c3ccccc3)c1)c(-c1ccncc1)n2CC1CCOCC1 [Example 5, 3-([1,1′-Biphenyl]-3-yl)-2-(pyridin-4-yl)-1-((tetrahydro-2H-pyran-4-yl)methyl)-6,7-dihydro-1H-pyrrolo[3,2-c]pyridin-4(5H)-one]	4.82 to 7.00
O=C1NCCc2c1c(-c1ccc(F)cc1)c(-c1ccnc(Cl)c1)n2Cc1ccc(C(F)(F)F)cc1F [Example 6, 2-(2-Chloropyridin-4-yl)-1-(2-fluoro-4-(trifluoromethyl)benzyl)-3-(4-fluorophenyl)-6,7-dihydro-1H-pyrrolo[3,2-c]pyridin-4(5H)-one]	4.82 to 7.00
CC(C)C(=O)Nc1cc(-c2c(-c3ccc(F)cc3)c3c(n2Cc2ccc(C(F)(F)F)cc2F)CCNC3=O)ccn1 [Example 7, N-(4-(1-(2-Fluoro-4-(trifluoromethyl)benzyl)-3-(4-fluorophenyl)-4-oxo-4,5,6,7-tetrahydro-1H-pyrrolo[3,2-c]pyridin-2-yl)pyridin-2-yl)isobutyramide]	4.82 to 7.00
O=C1NCCc2c1c(-c1ccc(F)cc1)c(-c1ccnc(NC(=O)C3CC3)c1)n2Cc1ccc(C(F)(F)F)cc1F [Example 8, N-(4-(1-(2-Fluoro-4-(trifluoromethyl)benzyl)-3-(4-fluorophenyl)-4-oxo-4,5,6,7-tetrahydro-1H-pyrrolo[3,2-c]pyridin-2-yl)pyridin-2-yl)cyclopropanecarboxamide]	> 7.52
N#Cc1cc(F)ccc1Cn1c2c(c(-c3ccc(C(F)(F)F)cc3)c1-c1ccncc1)C(=O)NCC2 [Example 9, 5-Fluoro-2-((4-oxo-2-(pyridin-4-yl)-3-(4-(trifluoromethyl)phenyl)-4,5,6,7-tetrahydro-1H-pyrrolo[3,2-c]pyridin-1-yl)methyl)benzonitrile]	7.00 to 7.51
CNc1cc(-c2c(-c3ccc(F)cc3)c3c(n2Cc2ccc(C(F)(F)F)cc2F)CCNC3=O)ccn1 [Example 10]	4.82 to 7.00
N#Cc1cc(F)ccc1Cn1c2c(c(-c3cccnc3)c1-c1ccnc(Cl)c1)C(=O)NCC2 [Example 11, 2-((2-(2-Chloropyridin-4-yl)-4-oxo-3-(pyridin-3-yl)-4,5,6,7-tetrahydro-1H-pyrrolo[3,2-c]pyridin-1-yl)methyl)-5-fluorobenzonitrile]	4.82 to 7.00
Nc1cc(-c2c(-c3ccc(F)cc3)c3c(n2Cc2ccc(C(F)(F)F)cc2F)CCNC3=O)ccn1 [Example 12, 2-(2-Aminopyridin-4-yl)-1-(2-fluoro-4-(trifluoromethyl)benzyl)-3-(4-fluorophenyl)-6,7-dihydro-1H-pyrrolo[3,2-c]pyridin-4(5H)-one]	4.82 to 7.00
Cc1noc(-c2ccc(Cn3c4c(c(-c5ccc(F)cc5)c3-c3ccncc3)C(=O)NCC4)cc2)n1 [Example 13, 3-(4-Fluorophenyl)-1-(4-(3-methyl-1,2,4-oxadiazol-5-yl)benzyl)-2-(pyridin-4-yl)-6,7-dihydro-1H-pyrrolo[3,2-c]pyridin-4(5H)-one]	> 7.52
N#Cc1cc(F)ccc1Cn1c2c(c(-c3cccs3)c1-c1ccncc1)C(=O)NCC2 [Example 14, 5-Fluoro-2-((4-oxo-2-(pyridin-4-yl)-3-(thiophen-2-yl)-4,5,6,7-tetrahydro-1H-pyrrolo[3,2-c]pyridin-1-yl)methyl)benzonitrile]	> 7.52
COc1cnccc1-c1c(-c2ccc(F)cc2)c2c(n1Cc1ccc(F)cc1C#N)CCNC2=O [Example 15]	7.00 to 7.51
N#Cc1cc(F)ccc1Cn1c2c(c(-c3ccc(F)cc3)c1-c1ccnc(C(F)(F)F)c1)C(=O)NCC2 [Example 16]	4.82 to 7.00
N#Cc1cc(F)ccc1Cn1c2c(c(-c3ccc(F)cc3)c1-c1cncnc1)C(=O)NCC2 [Example 17]	4.82 to 7.00

Structure (SMILES)	pIC50
N#Cc1cc(F)ccc1Cn1c2c(c(-c3ccc(F)cc3)c1-c1ccc3[nH]ccc3c1)C(=O)NCC2 [Example 19]	4.82 to 7.00
Cc1cc(-c2c(-c3ccc(F)cc3)c3c(n2Cc2ccc(F)cc2C#N)CCNC3=O)ccn1 [Example 20]	7.00 to 7.51
CC(=O)Nc1cccc(-c2c(-c3ccc(F)cc3)c3c(n2Cc2ccc(F)cc2C#N)CCNC3=O)c1 [Example 21]	4.82 to 7.00
N#Cc1cc(F)ccc1Cn1c2c(c(-c3ccc(F)cc3)c1-c1ccnc(Cl)c1)C(=O)NCC2 [Example 22]	4.82 to 7.00
N#Cc1cc(F)ccc1Cn1c2c(c(-c3ccc(F)cc3)c1-c1ccoc1)C(=O)NCC2 [Example 23]	4.82 to 7.00
Cn1cc(-c2c(-c3ccc(F)cc3)c3c(n2Cc2ccc(F)cc2C#N)CCNC3=O)cn1 [Example 24]	4.82 to 7.00
N#Cc1cc(F)ccc1Cn1c2c(c(-c3ccc(F)cc3)c1-c1ccsc1)C(=O)NCC2 [Example 25]	4.82 to 7.00
COc1ncc(-c2c(-c3ccc(F)cc3)c3c(n2Cc2ccc(F)cc2C#N)CCNC3=O)cn1 [Example 26]	4.82 to 7.00
N#Cc1cc(F)ccc1Cn1c2c(c(-c3ccc(F)cc3)c1-c1ccncc1F)C(=O)NCC2 [Example 27]	> 7.52
N#Cc1ccc(Cn2c3c(c(-c4ccc(F)cc4)c2-c2ccncc2)C(=O)NCC3)cc1 [Example 28]	7.00 to 7.51
O=C1NCCc2c1c(-c1ccc(F)cc1)c(-c1ccncc1)n2CC1CCNCC1 [Example 30]	4.82 to 7.00
O=C1NCCc2c1c(-c1ccc(F)cc1)c(-c1ccncc1)n2CC1CCOCC1 [Example 31]	4.82 to 7.00
O=C1NCCc2c1c(-c1ccc(F)cc1)c(-c1ccncc1)n2Cc1ccc(C(F)(F)F)cc1 [Example 33]	7.00 to 7.51
N#Cc1cc(F)ccc1Cn1c2c(c(-c3ccc(F)cc3)c1-c1ccncc1)C(=O)NCC2 [Example 34]	> 7.52
N#Cc1ccc(Cn2c3c(c(-c4ccc(F)cc4)c2-c2ccncc2)C(=O)NCC3)cc1F [Example 35]	7.00 to 7.51
CC(c1ccccc1)n1c2c(c(-c3ccc(F)cc3)c1-c1ccncc1)C(=O)NCC2 (stereo not drawn) [Example 36]	4.82 to 7.00
COc1ccc(CCn2c3c(c(-c4ccc(F)cc4)c2-c2ccncc2)C(=O)NCC3)cc1 [Example 37]	4.82 to 7.00

Same assay, conditions: read-out: IC50 for Inhibition of RIPK3

Structure (SMILES)	pIC50
N#Cc1cc(F)ccc1Cn1c2c(c(-c3ccc(F)cc3)c1-c1ccnc(F)c1)C(=O)NCC2 [Example 18]	4.82 to 7.00
O=C1NCCc2c1c(-c1ccc(F)cc1)c(-c1ccncc1)n2CC1CCCNC1 (stereo not drawn) [Example 32]	4.82 to 7.00
